Data: US20220183976A1, “COMPOSITIONS OF DISPERSED PHASE FOR PREPARATION OF APIXABAN-LOADED MICROSPHERES AND BIOCOMPATIBLE POLYMER-BASED APIXABAN-LOADED MICROSPHERES PREPARED THEREFROM” (HLB PHARMACEUTICAL CO., LTD., priority 2019, published 2022)

Test: Dissolution of Apixaban in non-halogen and halogen organic solvents
Format: physicochemical
Protocol: 25 mg of Apixaban was added to 1 mL of each of ethyl acetate, ethyl formate, methyl propionate, and ethanol and stirred. As a result, it was confirmed that Apixaban was not dissolved in non-halogen organic solvents (FIG. 1).
25 mg of Apixaban was dissolved in 1 mL of dichloromethane, and the mixture was photographed after 12 hours.

- Dissolution of Apixaban in non-halogen organic solvents (25 mg in 1 mL of each of ethyl acetate, ethyl formate, methyl propionate, ethanol, stirred): not dissolved
- Apixaban concentration in dichloromethane at which recrystallization occurs (dichloromethane): ≥ 10 mg/mL
SMILES: COc1ccc(-n2nc(C(N)=O)c3c2C(=O)N(c2ccc(N4CCCCC4=O)cc2)CC3)cc1 [Apixaban]
- Dissolution of Apixaban in halogen organic solvent (25 mg in 1 mL of dichloromethane, photographed after 12 hours): completely dissolved in the beginning, but after a certain time, crystals were formed
